From patent US20260242353A1, “HETEROARYL DERIVATIVES AS DDRs INHIBITORS” (CHIESI FARMACEUTICI S.P.A., priority 2022, published 2026)

Key:
DDR1 = target: T1, DDR1 (Homo sapiens, UniProt Q08345); experiment: LanthaScreen Europium Kinase Binding assay, DDR1; conditions: 5 nM DDR1, 20 nM Kinase Tracer 178, 1 h at rt; Ki from IC50 by Cheng-Prusoff; read-out: Ki DDR1
T1 construct: purchased Carna Biosciences
Procedure: (§1) DDR1 and DDR2 binding assays were performed using Life Technologies LanthaScreen™ Europium Kinase Binding assay. The compounds were incubated with 5 nM DDR1 (Carna Biosciences) or 5 nM DDR2 (Life Technologies) for 1 h at rt in white 384-well OptiPlate (PerkinElmer), containing 20 nM or 10 nM Kinase Tracer 178 respectively and 2 nM Europium labelled anti-GST antibody (Life Technologies) in assay buffer (50 mM HEPES pH 7.5, 10 mM MgCI2, 1 mM EGTA and 0.01% BRIJ35). The ratio of fluorescence emission 665 nm/615 nm after excitation at 340 nm was obtained using the Tecan Spark 20M plate reader. IC50 values were determined in GraphPad Prism 7.0 software, using 4 parameter model: log(inhibitor) vs. response. IC50 values were converted in Ki using the Cheng-Prusoff equation (Ki=IC50/(1+[Tracer]/Kd).

DDR2 = target: T2, DDR2 (Homo sapiens, UniProt Q16832); experiment: LanthaScreen Europium Kinase Binding assay, DDR2; conditions: 5 nM DDR2, 10 nM Kinase Tracer 178, 1 h at rt; Ki from IC50 by Cheng-Prusoff; read-out: Ki DDR2
T2 construct: purchased Life Technologies
T2 sequence (Q16832 22-855): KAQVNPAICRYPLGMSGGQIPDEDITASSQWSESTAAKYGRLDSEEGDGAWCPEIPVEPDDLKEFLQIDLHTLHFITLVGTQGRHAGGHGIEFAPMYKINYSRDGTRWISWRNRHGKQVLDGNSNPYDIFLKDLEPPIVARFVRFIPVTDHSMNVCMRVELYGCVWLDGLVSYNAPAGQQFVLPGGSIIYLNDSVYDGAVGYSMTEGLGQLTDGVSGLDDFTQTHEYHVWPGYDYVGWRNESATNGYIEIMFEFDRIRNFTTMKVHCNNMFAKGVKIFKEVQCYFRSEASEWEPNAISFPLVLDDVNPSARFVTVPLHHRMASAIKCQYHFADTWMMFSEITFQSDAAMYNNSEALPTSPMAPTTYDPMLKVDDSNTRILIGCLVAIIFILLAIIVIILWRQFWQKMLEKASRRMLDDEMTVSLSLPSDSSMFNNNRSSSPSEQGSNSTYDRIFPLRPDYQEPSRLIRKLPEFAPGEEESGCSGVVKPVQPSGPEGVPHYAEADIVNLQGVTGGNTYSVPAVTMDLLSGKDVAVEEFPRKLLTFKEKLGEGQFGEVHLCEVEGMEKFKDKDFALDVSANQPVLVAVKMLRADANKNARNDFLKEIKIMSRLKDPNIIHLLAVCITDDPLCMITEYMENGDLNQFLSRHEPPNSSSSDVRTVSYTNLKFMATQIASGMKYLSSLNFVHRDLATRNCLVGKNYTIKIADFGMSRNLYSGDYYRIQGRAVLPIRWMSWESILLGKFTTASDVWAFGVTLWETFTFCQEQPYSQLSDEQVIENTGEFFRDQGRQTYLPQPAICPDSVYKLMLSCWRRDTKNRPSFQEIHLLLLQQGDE
Procedure: as §1

T1 sequence (Q08345 19-913): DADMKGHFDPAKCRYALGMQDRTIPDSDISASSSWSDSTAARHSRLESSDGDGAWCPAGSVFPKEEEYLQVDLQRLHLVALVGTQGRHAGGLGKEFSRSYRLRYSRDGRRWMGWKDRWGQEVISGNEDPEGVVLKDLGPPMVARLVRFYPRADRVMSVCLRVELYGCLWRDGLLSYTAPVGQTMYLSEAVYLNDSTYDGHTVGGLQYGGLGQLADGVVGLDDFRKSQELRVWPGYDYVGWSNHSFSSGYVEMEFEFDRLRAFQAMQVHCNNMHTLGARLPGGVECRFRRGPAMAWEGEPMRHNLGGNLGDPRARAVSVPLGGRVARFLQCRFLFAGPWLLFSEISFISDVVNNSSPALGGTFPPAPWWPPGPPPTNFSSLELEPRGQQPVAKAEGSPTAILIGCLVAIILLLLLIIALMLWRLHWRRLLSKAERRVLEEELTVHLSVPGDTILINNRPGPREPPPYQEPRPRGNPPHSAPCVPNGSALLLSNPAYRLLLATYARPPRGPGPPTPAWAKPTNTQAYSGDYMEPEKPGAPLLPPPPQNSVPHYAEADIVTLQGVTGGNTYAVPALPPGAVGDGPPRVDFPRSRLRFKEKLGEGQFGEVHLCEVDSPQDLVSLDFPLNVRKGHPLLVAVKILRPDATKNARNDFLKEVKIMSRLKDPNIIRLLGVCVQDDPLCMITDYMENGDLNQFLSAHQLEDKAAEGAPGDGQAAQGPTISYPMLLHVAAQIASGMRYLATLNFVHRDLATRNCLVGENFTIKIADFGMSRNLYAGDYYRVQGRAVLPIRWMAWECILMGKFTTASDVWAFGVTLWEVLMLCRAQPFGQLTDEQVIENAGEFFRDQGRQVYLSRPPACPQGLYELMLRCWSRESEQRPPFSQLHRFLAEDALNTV

SMILES	Ki (DDR1) [nM]	Ki (DDR2) [nM]
Cc1ccc(C(=O)Nc2cncc(C(F)(F)F)c2)cc1[C@@H]1CCN(c2cnc3ccc(N4CCN(C)CC4)nn23)C1 [Example 80, (S)-4-methyl-3-(1-(6-(4-methylpiperazin-1-yl)imidazo[1,2-b]pyridazin-3-yl)pyrrolidin-3-yl)-N-(5-(trifluoromethyl)pyridin-3-yl)benzamide]	5 to 25	5 to 25
Cc1ccc(C(=O)Nc2cc(C(C)(C)C)n(C)n2)cc1[C@@H]1CCN(c2cncnc2)C1 [Example 13, (S)-N-(5-(tert-butyl)-1-methyl-1H-pyrazol-3-yl)-4-methyl-3-(1-(pyrimidin-5-yl)pyrrolidin-3-yl)benzamide]	< 5	< 5
Cc1ccc(C(=O)Nc2ccc(OC(F)(F)F)cn2)cc1[C@@H]1CCN(c2cncc(C(N)=O)c2)C1 [Example 10, (S)-5-(3-(2-methyl-5-((5-(trifluoromethoxy)pyridin-2-yl)carbamoyl)phenyl)pyrrolidin-1-yl)nicotinamide]	< 5	5 to 25
Cc1ccc(C(=O)Nc2cc(C(C)(C)C)no2)cc1[C@@H]1CCN(c2cncc(C#N)c2)C1 [Example 7, (S)—N-(3-(tert-butyl)isoxazol-5-yl)-3-(1-(5-cyanopyridin-3-yl)pyrrolidin-3-yl)-4-methylbenzamide]	< 5	5 to 25
Cc1ccc(C(=O)Nc2cc(C3CC3)nn2C)cc1[C@@H]1CCN(c2cncc(-c3cnn(C)c3)c2)C1 [Example 59, (S)-N-(3-cyclopropyl-1-methyl-1H-pyrazol-5-yl)-4-methyl-3-(1-(5-(1-methyl-1H-pyrazol-4-yl)pyridin-3-yl)pyrrolidin-3-yl)benzamide]	< 5	5 to 25
Cc1ccc(C(=O)Nc2cncc(C(F)(F)F)c2)cc1[C@@H]1CN(c2cncnc2)C[C@H]1O (racemic) [Example 105, 3-((3S,4R)-3-(4-hydroxy-1-(pyrimidin-5-yl)pyrrolidin-3-yl)-4-methyl-N-(5-(trifluoromethyl)pyridin-3-yl)benzamide and 3-((3R,4S)-4-hydroxy-1-(pyrimidin-5-yl)pyrrolidin-3-yl)-4-methyl-N-(5-(trifluoromethyl)pyridin-3-yl)benzamide]	< 5	5 to 25
Cn1nc(NC(=O)c2ccc(C(F)F)c(C3CCN(c4cncnc4)C3)c2)cc1C(C)(C)C (stereo not drawn) [Example 124, N-(5-(tert-butyl)-1-methyl-1H-pyrazol-3-yl)-4-(difluoromethyl)-3-(1-(pyrimidin-5-yl)pyrrolidin-3-yl)benzamide]	< 5	5 to 25
Cc1ccc(C(=O)c2cncc(C(F)(F)F)c2)cc1[C@@H]1CCN(c2cnc3ccc(CO)cn23)C1 [Example 123, (S)-(3-(1-(6-(hydroxymethyl)imidazo[1,2-a]pyridin-3-yl)pyrrolidin-3-yl)-4-methylphenyl)(5-(trifluoromethyl)pyridin-3-yl)methanone]	< 5	< 5
CCc1cc(NC(=O)c2ccc(C)c([C@@H]3CCN(c4cncnc4)C3)c2)no1 [Example 69, (S)-N-(5-ethylisoxazol-3-yl)-4-methyl-3-(1-(pyrimidin-5-yl)pyrrolidin-3-yl)benzamide]	< 5	5 to 25
Cc1ccc(C(=O)Nc2cncc(C(F)(F)F)c2)cc1[C@@H]1CCN(c2ncnc3cc(C(=O)N4CCOCC4)sc23)C1 [Example 61, (S)-4-methyl-3-(1-(6-(morpholine-4-carbonyl)thieno[3,2-d]pyrimidin-4-yl)pyrrolidin-3-yl)-N-(5-(trifluoromethyl)pyridin-3-yl)benzamide]	< 5	5 to 25
COCC(=O)Nc1ccc(OC2CN(c3cc(C(=O)Nc4cncc(C(F)(F)F)c4)ccc3C)C2)cn1 [Example 46, 3-(3-((6-(2-methoxyacetamido)pyridin-3-yl)oxy)azetidin-1-yl)-4-methyl-N-(5-(trifluoromethyl)pyridin-3-yl)benzamide]	5 to 25	25 to 100

The remaining lines, values ahead:

Ki (DDR1) [nM]	Ki (DDR2) [nM]	SMILES
< 5	< 5	Cc1ccc(C(=O)Nc2cncc(C(F)(F)F)c2)cc1[C@@H]1CCN(c2cncc(C#N)c2)C1 [Example 27, (S)-3-(1-(5-cyanopyridin-3-yl)pyrrolidin-3-yl)-4-methyl-N-(5-(trifluoromethyl)pyridin-3-yl)benzamide]
< 5	5 to 25	Cc1ccn2ncc(N3CC[C@@H](c4cc(C(=O)Nc5cncc(C(F)(F)F)c5)ccc4C)C3)c2n1 [Example 86, (S)-4-methyl-3-(1-(5-methylpyrazolo[1,5-a]pyrimidin-3-yl)pyrrolidin-3-yl)-N-(5-(trifluoromethyl)pyridin-3-yl)benzamide]
< 5	5 to 25	Cc1ccc(C(=O)Nc2cncc(C(F)(F)F)c2)cc1[C@@H]1CCN(c2cncc(OCCN3CCN(C)CC3)c2)C1 [Example 74, (S)-4-methyl-3-(1-(5-(2-(4-methylpiperazin-1-yl)ethoxy)pyridin-3-yl)pyrrolidin-3-yl)-N-(5-(trifluoromethyl)pyridin-3-yl)benzamide]
< 5	5 to 25	COc1ccc(C(=O)Nc2cncc(C(F)(F)F)c2)cc1C1CCN(c2cnn3cccnc23)C1 (single isomer, unassigned) [Example 115, 4-methoxy-3-(1-(pyrazolo[1,5-a]pyrimidin-3-yl)pyrrolidin-3-yl)-N-(5-(trifluoromethyl)pyridin-3-yl)benzamide]
< 5	5 to 25	COc1ccc(C(=O)Nc2cncc(C(F)(F)F)c2)cc1C1CCN(c2cnn3cccnc23)C1 (single isomer, unassigned) [Example 114, 4-methoxy-3-(1-(pyrazolo[1,5-a]pyrimidin-3-yl)pyrrolidin-3-yl)-N-(5-(trifluoromethyl)pyridin-3-yl)benzamide]
< 5	5 to 25	COc1ccc(C(=O)Nc2cncc(C(F)(F)F)c2)cc1C1CCN(c2cncnc2)C1 (racemic) [Example 111, 4-methoxy-3-(1-(pyrimidin-5-yl)pyrrolidin-3-yl)-N-(5-(trifluoromethyl)pyridin-3-yl)benzamide]
< 5	< 5	COCCNC(=O)c1cncc(N2CC[C@@H](c3cc(C(=O)Nc4cncc(C(F)(F)F)c4)ccc3C)C2)c1 [Example 24, (S)-N-(2-methoxyethyl)-5-(3-(2-methyl-5-((5-(trifluoromethyl)pyridin-3-yl)carbamoyl)phenyl)pyrrolidin-1-yl)nicotinamide]
< 5	5 to 25	Cc1ccc(C(=O)Nc2cncc(C(F)(F)F)c2)cc1[C@@H]1CCN(c2cncc(C(=O)NCCO)c2)C1 [Example 30, (S)-N-(2-hydroxyethyl)-5-(3-(2-methyl-5-((5-(trifluoromethyl)pyridin-3-yl)carbamoyl)phenyl)pyrrolidin-1-yl)nicotinamide]
< 5	5 to 25	CNC(=O)c1cc(N2CC[C@@H](c3cc(C(=O)Nc4cncc(C(F)(F)F)c4)ccc3C)C2)ccn1 [Example 87, (S)-N-methyl-4-(3-(2-methyl-5-((5-(trifluoromethyl)pyridin-3-yl)carbamoyl)phenyl)pyrrolidin-1-yl)picolinamide]
< 5	5 to 25	CNc1ncc(N2CC[C@@H](c3cc(C(=O)Nc4cncc(C(F)(F)F)c4)ccc3C)C2)cn1 [Example 99, (S)-4-methyl-3-(1-(2-(methylamino)pyrimidin-5-yl)pyrrolidin-3-yl)-N-(5-(trifluoromethyl)pyridin-3-yl)benzamide]
